# Test system: midbrain DA (TH^+) neurons
# Assay: Spontaneous dopaminergic (DA) cell death model in midbrain cultures
# Type: cell-based, Wistar rat
# Details: chronic treatments for 10 days
# Procedure: Animals were treated in accordance with the Guide for the Care and Use of Laboratory Animals (National Research Council, 1996), European Directive 86/609, and the guidelines of the local institutional animal care and use committee. Cultures were prepared from the ventral mesencephalon of gestational age 15.5 Wistar rat embryos (Janvier Breeding Center, Le Genest St Isle, France). Dissociated cells in suspension obtained by mechanical trituration of midbrain tissue pieces were seeded at a density of 1.2-1.5 10^5 cells/ cm^2 onto tissue culture supports precoated with 1 mg/ml polyethylenimine diluted in borate buffer pH 8.3 as described (Michel PP, et al., J Neurochem. 1997 Oct;69(4):1499-507). The cultures were then maintained in N5 medium supplemented with 5 mM glucose, 5% horse serum, and 0.5% fetal calf serum, except for the first 3 days in vitro (DIV), when the concentration of fetal calf serum was 2.5% to favor initial maturation of the cultures (Guerreiro S, et al., Mol Pharmacol. 2008 Oct;74(4):980-9). They were fed daily by replacing 70% of the medium. […]
# We used a model system in which DA cell loss was spontaneous. […] For the spontaneous dopaminergic cell death model, TH^+ neurons were counted while for the neuro-inflammation model, the number of microglial cells was evaluated. […]
row,SMILES,optimal neuroprotective concentrations [µM]
1,"Nc1ncnc2c1ncn2[C@@H]1O[C@H](COP(=O)(O)OP(=O)(O)OC[C@H]2O[C@@H]([n+]3cccc(C(=O)[O-])c3)[C@H](O)[C@@H]2O)[C@@H](O)[C@H]1OP(=O)(O)O [compound 1, 1-[(2R,3R,4S,5R)-5-[[[[(2R,3R,4R,5R)-5-(6-aminopurin-9-yl)-3-hydroxy-4-phosphonooxyoxolan-2-yl]methoxy-hydroxyphosphoryl]oxy-hydroxyphosphoryl]oxymethyl]-3,4-dihydroxyoxolan-2-yl]pyridin-1-ium-3-carboxylic acid]",30
2,"CC(=O)OCOC(=O)c1ccc[n+]([C@@H]2O[C@H](COP(=O)(O)OP(=O)(OCOC(C)=O)OC[C@H]3O[C@@H](n4cnc5c(N)ncnc54)[C@H](OP(=O)(OCOC(C)=O)OCOC(C)=O)[C@@H]3O)[C@@H](O)[C@H]2O)c1 (stereo partly drawn) [compound 2, 1-((2R,3R,4S,5R)-5-((((((acetoxymethoxy)(((2R,3R,4R,5R)-5-(6-amino-9H-purin-9-yl)-4-((bis(acetoxymethoxy)phosphoryl)oxy)-3-hydroxytetrahydrofuran-2-yl)methoxy)phosphoryl)oxy)(hydroxy)phosphoryl)oxy)methyl)-3,4-dihydroxytetrahydrofuran-2-yl)-3-((acetoxymethoxy)carbonyl)pyridin-1-ium]",1

# Source: patent EP3323415A1, “TREATMENT OF NEURODEGENERATIVE DISEASES” (Institut du Cerveau et de la Moelle Épinière-ICM, priority 2016, dated 2018)
